# Paper PMC11157491, “Novel Alaninamide Derivatives with Drug-like Potential for Development as Antiseizure and Antinociceptive Therapies—In Vitro and In Vivo Characterization” (ACS Chemical Neuroscience, 2024)
# Where two headings read alike, the source gives them in different places.
# Legend:
# [1] = Metabolic stability in human liver microsomes; format: in vitro ADME; conditions: human, human liver microsomes; HLMs, 120 min; read-out: metabolic stability (% remaining after the reaction with HLMs)
# From the text: Molecular mass Molecular mass of the
# Substrate (m/z) metabolite (m/z) Metabolic pathway
# * Reference unstable drug; metabolic stability determined using the same procedure published previously
# mice = test: Spontaneous locomotor activity; format: in vivo; conditions: all tested doses, i.p. 30 min before
# Description: We aimed to test the influence of the test compound on spontaneous locomotor activity to investigate its sedative properties. The strong sedative activity of new compounds is considered an undesirable property, which may lead to an incorrect or ambiguous interpretation of the in vivo results.
# Figure S3. […] The test compound or […]
# vehicle (1% Tween 80 solution) were administered 30 min i.p. before the 30-min long evaluation of locomotor activity. The results are presented as bar plots showing the mean ± SEM. The statistical significance was evaluated by one-way ANOVA followed by Dunnett’s post hoc test: * p < 0.05, *** p < 0.001, n = 8–10 mice per […]
# (1 picture or pasted object on this page, not shown here)
# [2] = Pharmacokinetic study in serum and brain; format: in vivo, mice; conditions: for k el: read-out: λz (converted); for Vd/F: read-out: Vz/F
# Description: Male CD-1 mice weighing 28–33 g housed in conditions of constant temperature with the 12:12 h light–dark cycle with free access to food and water were used in this study. The investigated compound was suspended in 1% Tween in sterile water for injection (Polpharma, Poland) and administered i.p. at two doses of 25 and 50 mg/kg. Additionally, the compound dissolved in a mixture of dimethylsulfoxide (DMSO), poly(ethylene glycol), and sterile water (1:2:7, v/v/v) was given orally (p.o.) at a dose of 25 mg/kg. The mice were sacrificed by decapitation under isoflurane anesthesia. Blood samples were collected at 5, 15, 30, 60, 120, 240, and 720 min after dosing (n = 3–4), and brains were harvested at the same time points. Blood was allowed to clot at room temperature for 20 min, and serum was separated by centrifugation at 3000 rpm for 10 min. The samples were stored at −80 °C until analysis. All animal procedures were approved by the First Ethics Committee on Animal Experimentation in Kraków (license no. 270/2019).
# Before LC-MS/MS analysis, mouse brains were homogenized in distilled water at the ratio of 1:4 (w/v) using the ULTRA-TURRAX T10 basic tissue homogenizer (IKA, Germany). Brain homogenates or serum samples (50 μL) were deproteinized with 150 μL of 0.1% formic acid in acetonitrile with addition of the internal standard (valsartan), shaken for 10 min (IKA Vibrax VXR, Germany), and then centrifuged for 5 min at a speed of 8000g (Eppendorf miniSpin centrifuge, Germany). Supernatants were transferred into autosampler vials, and a sample volume of 1 μL was injected into the LC-MS/MS system. The autosampler temperature was maintained at 15 °C. Analytes were separated on a Hypersil Gold C18 analytical column (3 × 50 mm^2, 5 μm, Thermo Scientific) using an AB Sciex Exion LC AC HPLC system coupled with the triple quadrupole mass spectrometer (Sciex QTRAP 4500, both from the Danaher Corporation). The oven temperature was set at 30 °C. The initial mobile phase composition was 95% B (0.1% formic acid in water) and 5% A (0.1% formic acid in MeCN) for the first 2 min with a linear gradient to 5% B in the next 2 min and then isocratic mode for 2 min with the following rapid change back to 95% B in 0.1 min. The remaining time of elution was set at 95% B. The whole HPLC operation lasted 10 min, and the flow rate was set at 0.4 mL/min. Electrospray ionization (ESI) in the positive ion mode was used for ion production. […] The mass spectrometric conditions were optimized by continuous infusion of the standard solution at a rate of 7 μL/min using a Harvard infusion pump. The ion source temperature was maintained at 450 °C, and the ion spray voltage was set at 5500 V. The curtain gas (CUR) was set at 40 psi and the collision gas (CAD) at Medium. The calibration curves were constructed by plotting the ratio of the peak area of the studied compound to the internal standard (IS) versus drug concentration and generated by weighted (1/x × x) linear regression analysis. […] Working standard solutions were prepared in methanol by the serial dilution of the stock solution at the following concentrations: 0.01, 0.1, 0.25, 0.5, 1, 2.5, 5, 10, 20, 50, 100, and 200 μg/mL. To prepare samples for the calibration curve, 45 μL of the matrix (plasma or brain homogenate) was spiked with 5 μL of the standard working solution at an appropriate concentration level and vortexed for 10 s. For each matrix, there were two calibration curves constructed separately for lower and higher concentrations. Calibrators (as well as samples) from the upper concentration range were additionally 10 times diluted with the precipitating agent. The validated quantitation ranges for this method were from 0.001 to 5 μg/mL and from 0.1 to 20 μg/mL of serum, and from 0.005 to 25 μg/g and from 0.5 to 100 μg/g of the brain. Samples with the concentration of 28 above the upper limit of quantification were diluted 10 times with the blank matrix (serum or brain homogenate). […]
# [3] = male, CD-1, mouse, ip, brain, i.p. 25 mg/kg, mice
# [4] = male, CD-1, mouse, ip, brain, i.p. 50 mg/kg, mice
# [5] = male, CD-1, mouse, ip, serum, i.p. 25 mg/kg, mice
# [6] = male, CD-1, mouse, ip, serum, i.p. 50 mg/kg, mice
# [7] = male, CD-1, mouse, po, brain, p.o. 25 mg/kg, mice
# [8] = male, CD-1, mouse, po, serum, p.o. 25 mg/kg, mice
structure (smiles),measurement,setting,value
"CC(=O)NC(C)C(=O)N1CCN(c2cccc(C(F)(F)F)c2)CC1 (stereo not drawn) [Compound 26, N-(1-oxo-1-(4-(3-(Trifluoromethyl)phenyl)piperazin-1-yl)propan-2-yl)acetamide]",remaining at 2 h,[1],93.5%
"CC(=O)NC(C)C(=O)N1CCN(c2cccc(OC(F)(F)F)c2)CC1 (stereo not drawn) [Compound 28, N-(1-oxo-1-(4-(3-(Trifluoromethoxy)phenyl)piperazin-1-yl)propan-2-yl)acetamide]",spontaneous locomotor activity,mice,decreased spontaneous locomotor activity
same,brain concentration,[2]; after 25 mg/kg dose administration,> 10 µM
same,AUC0–t,"[2]; brain, i.p. 25 mg/kg, mice","347,914.8 ng·min/mL (g)"
same,AUC0–∞,"[2]; brain, i.p. 25 mg/kg, mice","348,212.5 ng·min/mL (g)"
same,Cmax,"[2]; brain, i.p. 25 mg/kg, mice","13,683.3 ng/mL (g)"
same,t0.5λz,"[2]; brain, i.p. 25 mg/kg, mice",111.39 min
same,AUC0–t,"[2]; brain, i.p. 50 mg/kg, mice","1,284,194.3 ng·min/mL (g)"
same,AUC0–∞,"[2]; brain, i.p. 50 mg/kg, mice","1,285,007.9 ng·min/mL (g)"
same,Cmax,"[2]; brain, i.p. 50 mg/kg, mice","39,800.0 ng/mL (g)"
same,t0.5λz,"[2]; brain, i.p. 50 mg/kg, mice",106.52 min
same,AUC0–t,"[2]; brain, p.o. 25 mg/kg, mice","333,360.7 ng·min/mL (g)"
same,AUC0–∞,"[2]; brain, p.o. 25 mg/kg, mice","334,667.7 ng·min/mL (g)"
same,Cmax,"[2]; brain, p.o. 25 mg/kg, mice",3799.4 ng/mL (g)
same,t0.5λz,"[2]; brain, p.o. 25 mg/kg, mice",97.20 min
same,Kp,"[2]; male, CD-1, mouse, brain/serum, intraperitoneal, oral, both doses and routes of administration, read-out: brain-to-serum Cmax and AUC ratio",> 1
same,Tmax,"[2]; male, CD-1, mouse, intraperitoneal, oral, all cases (serum and brain, both doses and routes), read-out: time to reach the maximum concentration (tmax) (converted)",5 min
same,half-life,"[2]; male, CD-1, mouse, intraperitoneal, oral, serum and brain, both doses and routes (i.p. and p.o.), read-out: elimination half-lives (t1/2)",58.6 to 111 min
same,MRT,[2]; [3],23.6 min
same,Tmax,"[2]; male, CD-1, mouse, ip, brain, i.p. 25 mg/kg, mice, read-out: tmax (converted)",5 min
same,k el,[2]; [3],0.0001 s⁻¹
same,MRT,[2]; [4],26.4 min
same,Tmax,"[2]; male, CD-1, mouse, ip, brain, i.p. 50 mg/kg, mice, read-out: tmax (converted)",5 min
same,k el,[2]; [4],0.000117 s⁻¹
same,CL/F,[2]; [5],98 mL/min/kg
same,MRT,[2]; [5],22 min
same,Vd/F,[2]; [5],13.4 L/kg
same,Tmax,"[2]; male, CD-1, mouse, ip, serum, i.p. 25 mg/kg, mice, read-out: tmax (converted)",5 min
same,k el,[2]; [5],0.000117 s⁻¹
same,CL/F,[2]; [6],48 mL/min/kg
same,MRT,[2]; [6],24.4 min
same,Vd/F,[2]; [6],5.89 L/kg
same,Tmax,"[2]; male, CD-1, mouse, ip, serum, i.p. 50 mg/kg, mice, read-out: tmax (converted)",5 min
same,k el,[2]; [6],0.000133 s⁻¹
same,MRT,[2]; [7],110 min
same,Tmax,"[2]; male, CD-1, mouse, po, brain, p.o. 25 mg/kg, mice, read-out: tmax (converted)",5 min
same,k el,[2]; [7],0.000117 s⁻¹
same,CL/F,[2]; [8],84 mL/min/kg
same,MRT,[2]; [8],101 min
same,Vd/F,[2]; [8],7.1 L/kg
same,Tmax,"[2]; male, CD-1, mouse, po, serum, p.o. 25 mg/kg, mice, read-out: tmax (converted)",5 min
same,k el,[2]; [8],0.0002 s⁻¹
same,AUC0–t,"[2]; serum, i.p. 25 mg/kg, mice","254,384.6 ng·min/mL (g)"
same,AUC0–∞,"[2]; serum, i.p. 25 mg/kg, mice","254,465.4 ng·min/mL (g)"
same,Cmax,"[2]; serum, i.p. 25 mg/kg, mice","11,033.3 ng/mL (g)"
same,t0.5λz,"[2]; serum, i.p. 25 mg/kg, mice",94.29 min
same,AUC0–t,"[2]; serum, i.p. 50 mg/kg, mice","1,045,787.2 ng·min/mL (g)"
same,AUC0–∞,"[2]; serum, i.p. 50 mg/kg, mice","1,045,940.8 ng·min/mL (g)"
same,Cmax,"[2]; serum, i.p. 50 mg/kg, mice","37,566.7 ng/mL (g)"
same,t0.5λz,"[2]; serum, i.p. 50 mg/kg, mice",85.42 min
same,AUC0–t,"[2]; serum, p.o. 25 mg/kg, mice","297,899.7 ng·min/mL (g)"
same,AUC0–∞,"[2]; serum, p.o. 25 mg/kg, mice","298,019.5 ng·min/mL (g)"
same,Cmax,"[2]; serum, p.o. 25 mg/kg, mice",3740.0 ng/mL (g)
same,t0.5λz,"[2]; serum, p.o. 25 mg/kg, mice",58.62 min
